Tested on: 415267-285-R-J2-PDC complex spheroid viability
Assay: Anticancer human tumor 415267-285-R-J2-PDC patient-derived breast carcinoma cell line growth inhibition [POLQ]
Settings: for IC50: curve of first compound; for viability, T/C: stronger effect = lower value
Description: Multicellular complex tumor spheroid response to Polymerase (POL) inhibitors (novobiocin, ART-558, RP6685) in combination with a variety of drugs and investigational agents in selected tumor cell lines
The POL inhibitors (novobiocin, ART-558, and RP6685) were evaluated both individually and in combination with standard of care and investigational anticancer small molecules within a complex spheroid model of solid tumors. . Complex spheroids include a stromal component modeled by human endothelial cells (HUVEC) and fibroblasts modeled by human mesenchymal stem cells (MSCs). The concentration ranges selected for each drug and investigational agent were based upon clinically achievable concentrations if the clinical Cmax of the agent was known.
Compounds. The drugs and investigational agents: novobiocin (NSC847541), ART-558 (NSC835418), RP-6685 (NSC848927), peposertib (NSC802822), ceralasertib (NSC780249), elimusertib (NSC800525), camonsertib (NSC841442), AZD-1390 (NSC803789), olaparib (NSC753686), talazoparib (NSC767125), rucaparib (NSC756644), sotorasib (NSC818433), MRTX-1133 (NSC836407), SN-38 (NSC673596), topotecan (NSC609699), epotoside (NSC141540), doxorubicin (NSC123127), gemcitabine (NSC613327), 5-fluorouracil (NSC19893), paclitaxel (NSC125973), vemurafenib (NSC761431), MSA-2 (NSC828583), SN-011 (NSC837082), adavosertib (NSC754352), prexasertib (NSC758257), carboplatin (NSC241240) and oxaliplatin (NSC266046), were obtained from the National Cancer Institute (NCI) Developmental Therapeutics Program Chemical Repository (21). The FDA-approved anticancer drug set is available from the Developmental Therapeutics Program at https://dtp.cancer.gov/organization/dscb/obtaining/. […] The stock solutions were prepared in dimethyl sulfoxide (DMSO, Sigma-Aldrich, St. Louis, MO, cat. D2650), except for the platinum compounds which were prepared in saline (Quality Biological, Gaithersburg, MD, cat. 114-055-101), at 800-fold the tested concentration and stored at -70 degrees C prior to their use. All drugs and investigational agents were tested over a range starting from a high concentration at or near the clinical Cmax and decreasing in half-log increments. If the clinical Cmax for an agent had not been determined, the highest concentration tested was 10 microM, except for SN-38, which was tested at a high concentration of 1 microM.
Cell Culture. All cells were maintained in an incubator at 37 degrees C and 5% CO2 with 95% humidity. The PDC lines were cultured according to standard operating procedures established by the NCI PDMR (https://pdmr.cancer.gov). Table 3 of the manuscript, lists the cell lines along with the number of the three cell types plated to form the mct-spheroids and media for tumor cell growth. After thawing, all PDC lines, except 997537-175-T-J1-PDC and 415267-285-R-J2-PDC, were cultured in Matrigel-coated flasks prepared with a working solution of 1X Ham's F-12 nutrient mix, without supplementation (Thermo Fisher Scientific, cat. 11765054), 100 U/mL penicillin-streptomycin (Thermo Fisher Scientific, cat. 15140122), and 2.5% Matrigel (Corning Inc., Corning, NY, cat. 354248) for the first three passages. The two PDC lines 997537-175-T-J1-PDC and 415267-285-R-J2-PDC were cultured on uncoated flasks. The 857933-349-R-J2-PDC line was cultured in 6C/Colon 1B media containing advanced DMEM/F-12 (Thermo Fisher Scientific, cat. 12634028), 10 mM HEPES (Thermo Fisher Scientific, cat. 15630080), 1X GlutaMAX supplement (Thermo Fisher Scientific, cat. 35050061), 0.1 mg/mL primocin (InvivoGen, San Diego, CA, cat. ant-pm-2), 10% defined fetal bovine serum, heat inactivated (HyClone Laboratories Inc., Logan, UT, cat. SH30070.03HI), 50% L-WRN conditioned media (ATCC, cat. CRL-3276), 1.25 mM N-Acetyl-L-cysteine (Sigma-Aldrich, cat. A9165), 10 mM nicotinamide (Sigma-Aldrich, cat. N0636), 1X B-27 supplement (Thermo Fisher Scientific, cat. 17504044), 1X N-2 supplement (Thermo Fisher Scientific, cat. […]
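Further: spheroids exposed to compounds for one week before readout.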
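Wherever viability, T/C is given: luminescence used as stand-in measure of viable cells; 100% = DMSO vehicle control viability.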

CC1COCCN1c1cc(-c2ccnn2C)c2ccnc(-c3ccn[nH]3)c2n1 (configuration not stated) + Nc1ccc(C#CCN(C(=O)Cc2ncc(C(F)(F)F)cc2C(F)(F)F)c2ccc(F)cc2)nn1
IC50 (second compound 0.0316 µM): 42.7 nM | IC50 (second compound 0.1 µM): 40.2 nM | IC50 (second compound 0.316 µM): 40 nM | IC50 (second compound 1 µM): 36.9 nM | IC50 (second compound 3.16 µM): 32.6 nM | IC50 (second compound 10 µM): < 31.6 nM | viability, T/C (second compound 0.0316 µM, first compound 0.0316 µM): 63.7% | viability, T/C (second compound 0.0316 µM, first compound 0.1 µM): 11.2% | viability, T/C (second compound 0.0316 µM, first compound 0.316 µM): 5.02% | viability, T/C (second compound 0.0316 µM, first compound 1 µM): 3.87% | viability, T/C (second compound 0.0316 µM, first compound 3.16 µM): 4.17% | viability, T/C (second compound 0.0316 µM, first compound 10 µM): 3.9% | viability, T/C (second compound 0.1 µM, first compound 0.0316 µM): 60.3% | viability, T/C (second compound 0.1 µM, first compound 0.1 µM): 10.8% | viability, T/C (second compound 0.1 µM, first compound 0.316 µM): 4.23% | viability, T/C (second compound 0.1 µM, first compound 1 µM): 3.18% | viability, T/C (second compound 0.1 µM, first compound 3.16 µM): 4.26% | viability, T/C (second compound 0.1 µM, first compound 10 µM): 3.58% | viability, T/C (second compound 0.316 µM, first compound 0.0316 µM): 60% | viability, T/C (second compound 0.316 µM, first compound 0.1 µM): 11.4% | viability, T/C (second compound 0.316 µM, first compound 0.316 µM): 4.5% | viability, T/C (second compound 0.316 µM, first compound 1 µM): 3.99% | viability, T/C (second compound 0.316 µM, first compound 3.16 µM): 3.82% | viability, T/C (second compound 0.316 µM, first compound 10 µM): 4% | viability, T/C (second compound 1 µM, first compound 0.0316 µM): 56.4% | viability, T/C (second compound 1 µM, first compound 0.1 µM): 8.91% | viability, T/C (second compound 1 µM, first compound 0.316 µM): 4.69% | viability, T/C (second compound 1 µM, first compound 1 µM): 3.73% | viability, T/C (second compound 1 µM, first compound 3.16 µM): 3.7% | viability, T/C (second compound 1 µM, first compound 10 µM): 3.28% | viability, T/C (second compound 3.16 µM, first compound 0.0316 µM): 51.2% | viability, T/C (second compound 3.16 µM, first compound 0.1 µM): 9.4% | viability, T/C (second compound 3.16 µM, first compound 0.316 µM): 5.57% | viability, T/C (second compound 3.16 µM, first compound 1 µM): 3.36% | viability, T/C (second compound 3.16 µM, first compound 3.16 µM): 3.4% | viability, T/C (second compound 3.16 µM, first compound 10 µM): 4.22% | viability, T/C (second compound 10 µM, first compound 0.0316 µM): 42.1% | viability, T/C (second compound 10 µM, first compound 0.1 µM): 10.7% | viability, T/C (second compound 10 µM, first compound 0.316 µM): 5.92% | viability, T/C (second compound 10 µM, first compound 1 µM): 3.97% | viability, T/C (second compound 10 µM, first compound 3.16 µM): 3.84% | viability, T/C (second compound 10 µM, first compound 10 µM): 4.9%
